Data published in ChEMBL document CHEMBL4033665, “Synthesis and applications of benzohydroxamic acid-based histone deacetylase inhibitors” (Eur J Med Chem, 2017).

Assays:
[1] = target: Histone deacetylase 1 (Homo sapiens, UniProt Q13547); test: Inhibition of human HDAC1 after 15 mins by trypsin-coupled fluorescence assay
[2] = target: Histone deacetylase 2 (Homo sapiens, UniProt Q92769); test: Inhibition of human HDAC2 after 15 mins by trypsin-coupled fluorescence assay
[3] = target: Histone deacetylase 3 (Homo sapiens, UniProt O15379); test: Inhibition of human HDAC3 after 15 mins by trypsin-coupled fluorescence assay
[4] = target: Histone deacetylase 4 (Homo sapiens, UniProt P56524); test: Inhibition of human HDAC4 after 15 mins by trypsin-coupled fluorescence assay
[5] = target: Histone deacetylase 5 (Homo sapiens, UniProt Q9UQL6); test: Inhibition of human HDAC5 after 15 mins by trypsin-coupled fluorescence assay
[6] = target: T1, Histone deacetylase 8 (Homo sapiens, UniProt Q9BY41); test: Inhibition of human HDAC8 after 15 mins by trypsin-coupled fluorescence assay
T1 sequence (Q9BY41 whole entry): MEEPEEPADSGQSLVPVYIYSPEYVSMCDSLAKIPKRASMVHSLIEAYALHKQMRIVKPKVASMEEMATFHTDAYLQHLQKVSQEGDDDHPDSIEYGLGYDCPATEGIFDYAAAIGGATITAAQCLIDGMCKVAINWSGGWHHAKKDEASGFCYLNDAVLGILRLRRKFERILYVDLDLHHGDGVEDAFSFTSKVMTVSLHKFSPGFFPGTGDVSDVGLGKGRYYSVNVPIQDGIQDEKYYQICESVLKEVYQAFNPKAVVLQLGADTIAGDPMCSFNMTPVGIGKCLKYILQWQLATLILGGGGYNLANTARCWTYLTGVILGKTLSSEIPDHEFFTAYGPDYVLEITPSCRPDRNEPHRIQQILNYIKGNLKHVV

[7] = target: Histone deacetylase 9 (Homo sapiens, UniProt Q9UKV0); test: Inhibition of human HDAC9 after 15 mins by trypsin-coupled fluorescence assay
[8] = target: T2, Polyamine deacetylase HDAC10 (Homo sapiens, UniProt Q969S8); test: Inhibition of human HDAC10 after 15 mins by trypsin-coupled fluorescence assay
T2 sequence (Q969S8 whole entry): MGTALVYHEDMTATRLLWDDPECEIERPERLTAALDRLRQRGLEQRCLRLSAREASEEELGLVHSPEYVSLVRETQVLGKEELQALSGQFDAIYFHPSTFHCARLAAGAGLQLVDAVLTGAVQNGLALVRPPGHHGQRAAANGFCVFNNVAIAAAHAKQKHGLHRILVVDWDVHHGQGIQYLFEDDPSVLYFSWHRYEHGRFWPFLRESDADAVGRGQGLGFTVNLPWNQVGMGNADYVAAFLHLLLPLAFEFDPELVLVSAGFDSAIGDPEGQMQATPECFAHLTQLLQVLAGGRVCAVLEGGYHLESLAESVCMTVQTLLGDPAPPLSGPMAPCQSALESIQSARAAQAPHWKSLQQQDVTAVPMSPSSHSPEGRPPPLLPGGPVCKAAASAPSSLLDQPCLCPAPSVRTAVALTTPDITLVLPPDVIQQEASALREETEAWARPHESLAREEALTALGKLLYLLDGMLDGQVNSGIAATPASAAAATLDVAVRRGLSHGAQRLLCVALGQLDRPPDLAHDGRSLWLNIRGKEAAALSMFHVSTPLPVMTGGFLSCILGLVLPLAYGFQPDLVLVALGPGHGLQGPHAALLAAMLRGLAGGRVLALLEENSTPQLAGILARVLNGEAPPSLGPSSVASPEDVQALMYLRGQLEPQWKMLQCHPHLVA

[9] = target: T3, Histone deacetylase 11 (Homo sapiens, UniProt Q96DB2); test: Inhibition of human HDAC11 after 15 mins by trypsin-coupled fluorescence assay
T3 sequence (Q96DB2 whole entry): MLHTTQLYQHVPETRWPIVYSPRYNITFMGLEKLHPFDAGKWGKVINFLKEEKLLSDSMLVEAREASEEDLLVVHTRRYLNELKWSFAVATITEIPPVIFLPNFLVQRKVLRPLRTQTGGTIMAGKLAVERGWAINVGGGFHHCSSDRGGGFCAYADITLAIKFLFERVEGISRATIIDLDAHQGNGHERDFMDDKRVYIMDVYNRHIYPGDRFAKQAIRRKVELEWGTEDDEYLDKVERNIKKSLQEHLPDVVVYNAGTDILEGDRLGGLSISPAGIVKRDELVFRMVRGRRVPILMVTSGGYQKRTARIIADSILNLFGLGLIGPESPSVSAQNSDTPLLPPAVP

[10] = organism: Homo sapiens; test: Selectivity index, ratio of IC50 for human HDAC1 to IC50 for human HDAC6
[11] = organism: Homo sapiens; test: Selectivity index, ratio of IC50 for human HDAC2 to IC50 for human HDAC6
[12] = organism: Homo sapiens; test: Selectivity index, ratio of IC50 for human HDAC3 to IC50 for human HDAC6
[13] = organism: Homo sapiens; test: Selectivity index, ratio of IC50 for human HDAC4 to IC50 for human HDAC6
[14] = organism: Homo sapiens; test: Selectivity index, ratio of IC50 for human HDAC5 to IC50 for human HDAC6
[15] = organism: Homo sapiens; test: Selectivity index, ratio of IC50 for human HDAC7 to IC50 for human HDAC6
[16] = organism: Homo sapiens; test: Selectivity index, ratio of IC50 for human HDAC8 to IC50 for human HDAC6
[17] = organism: Homo sapiens; test: Selectivity index, ratio of IC50 for human HDAC9 to IC50 for human HDAC6
[18] = organism: Homo sapiens; test: Selectivity index, ratio of IC50 for human HDAC10 to IC50 for human HDAC6
[19] = organism: Homo sapiens; test: Selectivity index, ratio of IC50 for human HDAC11 to IC50 for human HDAC6

Sequence of Histone deacetylase 9 (Q9UKV0 whole entry): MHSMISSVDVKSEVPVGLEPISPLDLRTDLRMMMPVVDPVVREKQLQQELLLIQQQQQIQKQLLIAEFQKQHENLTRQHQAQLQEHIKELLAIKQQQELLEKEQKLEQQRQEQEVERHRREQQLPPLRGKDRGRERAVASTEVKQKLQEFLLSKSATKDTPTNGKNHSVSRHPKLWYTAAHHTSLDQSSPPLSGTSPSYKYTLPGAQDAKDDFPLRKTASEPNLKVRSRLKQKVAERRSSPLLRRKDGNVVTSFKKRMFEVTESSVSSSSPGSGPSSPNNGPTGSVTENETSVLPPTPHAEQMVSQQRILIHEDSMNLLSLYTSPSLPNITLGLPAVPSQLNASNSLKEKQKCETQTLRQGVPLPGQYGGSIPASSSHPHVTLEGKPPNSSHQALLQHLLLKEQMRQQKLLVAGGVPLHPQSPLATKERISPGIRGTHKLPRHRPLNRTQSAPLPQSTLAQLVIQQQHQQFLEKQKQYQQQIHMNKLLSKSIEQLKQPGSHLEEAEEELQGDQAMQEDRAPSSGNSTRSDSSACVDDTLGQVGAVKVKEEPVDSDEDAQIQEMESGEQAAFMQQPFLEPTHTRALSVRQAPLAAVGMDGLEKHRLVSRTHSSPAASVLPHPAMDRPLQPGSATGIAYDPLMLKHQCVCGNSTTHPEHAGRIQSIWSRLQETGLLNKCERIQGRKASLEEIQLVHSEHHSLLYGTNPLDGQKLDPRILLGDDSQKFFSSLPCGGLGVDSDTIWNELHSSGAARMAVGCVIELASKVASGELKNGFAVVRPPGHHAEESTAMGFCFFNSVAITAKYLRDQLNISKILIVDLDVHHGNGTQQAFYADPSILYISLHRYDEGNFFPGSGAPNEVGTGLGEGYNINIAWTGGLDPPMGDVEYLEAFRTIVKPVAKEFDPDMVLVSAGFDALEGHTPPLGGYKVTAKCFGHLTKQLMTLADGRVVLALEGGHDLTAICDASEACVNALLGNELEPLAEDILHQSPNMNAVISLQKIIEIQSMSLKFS
Sequence of Histone deacetylase 4 (P56524 whole entry): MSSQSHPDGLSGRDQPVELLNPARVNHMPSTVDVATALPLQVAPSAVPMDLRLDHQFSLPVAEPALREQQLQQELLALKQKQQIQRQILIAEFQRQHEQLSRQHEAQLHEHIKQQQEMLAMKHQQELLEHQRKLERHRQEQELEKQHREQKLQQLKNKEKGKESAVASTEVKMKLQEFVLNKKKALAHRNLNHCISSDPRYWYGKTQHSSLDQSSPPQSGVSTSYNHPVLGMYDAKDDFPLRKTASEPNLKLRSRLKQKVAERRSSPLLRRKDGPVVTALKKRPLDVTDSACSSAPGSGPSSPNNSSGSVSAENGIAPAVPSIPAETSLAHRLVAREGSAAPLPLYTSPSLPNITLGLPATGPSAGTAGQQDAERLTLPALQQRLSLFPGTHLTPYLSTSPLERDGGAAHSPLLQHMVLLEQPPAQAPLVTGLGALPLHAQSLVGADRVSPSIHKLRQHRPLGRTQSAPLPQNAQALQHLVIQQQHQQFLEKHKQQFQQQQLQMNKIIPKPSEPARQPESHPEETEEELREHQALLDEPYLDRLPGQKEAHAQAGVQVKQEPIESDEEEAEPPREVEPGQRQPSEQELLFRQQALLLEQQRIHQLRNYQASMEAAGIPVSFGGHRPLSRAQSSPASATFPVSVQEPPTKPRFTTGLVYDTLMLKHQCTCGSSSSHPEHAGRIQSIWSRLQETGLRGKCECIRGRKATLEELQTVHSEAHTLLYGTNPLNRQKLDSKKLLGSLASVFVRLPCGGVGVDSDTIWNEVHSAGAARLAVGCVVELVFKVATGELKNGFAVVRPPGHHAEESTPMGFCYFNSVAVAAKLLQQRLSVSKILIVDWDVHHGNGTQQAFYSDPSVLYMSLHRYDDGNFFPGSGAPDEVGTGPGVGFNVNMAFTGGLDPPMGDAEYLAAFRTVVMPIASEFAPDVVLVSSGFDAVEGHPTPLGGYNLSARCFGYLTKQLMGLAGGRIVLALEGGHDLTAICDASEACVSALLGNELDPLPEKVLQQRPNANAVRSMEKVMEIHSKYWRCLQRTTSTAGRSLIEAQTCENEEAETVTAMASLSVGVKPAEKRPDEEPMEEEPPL
Sequence of Histone deacetylase 1 (Q13547 whole entry): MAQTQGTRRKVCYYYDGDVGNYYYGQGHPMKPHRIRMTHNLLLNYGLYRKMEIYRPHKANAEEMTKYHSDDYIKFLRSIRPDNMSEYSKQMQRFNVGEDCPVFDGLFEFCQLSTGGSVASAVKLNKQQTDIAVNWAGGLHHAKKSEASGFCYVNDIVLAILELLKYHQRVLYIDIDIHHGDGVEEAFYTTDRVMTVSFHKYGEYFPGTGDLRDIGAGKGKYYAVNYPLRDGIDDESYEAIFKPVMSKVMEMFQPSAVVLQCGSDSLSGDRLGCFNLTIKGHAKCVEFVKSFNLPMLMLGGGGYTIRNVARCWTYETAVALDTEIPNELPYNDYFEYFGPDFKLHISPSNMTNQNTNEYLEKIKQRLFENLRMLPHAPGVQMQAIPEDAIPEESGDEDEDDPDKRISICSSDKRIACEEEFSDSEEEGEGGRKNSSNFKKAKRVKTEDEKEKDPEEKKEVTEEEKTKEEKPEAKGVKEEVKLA
Sequence of Histone deacetylase 5 (Q9UQL6 whole entry): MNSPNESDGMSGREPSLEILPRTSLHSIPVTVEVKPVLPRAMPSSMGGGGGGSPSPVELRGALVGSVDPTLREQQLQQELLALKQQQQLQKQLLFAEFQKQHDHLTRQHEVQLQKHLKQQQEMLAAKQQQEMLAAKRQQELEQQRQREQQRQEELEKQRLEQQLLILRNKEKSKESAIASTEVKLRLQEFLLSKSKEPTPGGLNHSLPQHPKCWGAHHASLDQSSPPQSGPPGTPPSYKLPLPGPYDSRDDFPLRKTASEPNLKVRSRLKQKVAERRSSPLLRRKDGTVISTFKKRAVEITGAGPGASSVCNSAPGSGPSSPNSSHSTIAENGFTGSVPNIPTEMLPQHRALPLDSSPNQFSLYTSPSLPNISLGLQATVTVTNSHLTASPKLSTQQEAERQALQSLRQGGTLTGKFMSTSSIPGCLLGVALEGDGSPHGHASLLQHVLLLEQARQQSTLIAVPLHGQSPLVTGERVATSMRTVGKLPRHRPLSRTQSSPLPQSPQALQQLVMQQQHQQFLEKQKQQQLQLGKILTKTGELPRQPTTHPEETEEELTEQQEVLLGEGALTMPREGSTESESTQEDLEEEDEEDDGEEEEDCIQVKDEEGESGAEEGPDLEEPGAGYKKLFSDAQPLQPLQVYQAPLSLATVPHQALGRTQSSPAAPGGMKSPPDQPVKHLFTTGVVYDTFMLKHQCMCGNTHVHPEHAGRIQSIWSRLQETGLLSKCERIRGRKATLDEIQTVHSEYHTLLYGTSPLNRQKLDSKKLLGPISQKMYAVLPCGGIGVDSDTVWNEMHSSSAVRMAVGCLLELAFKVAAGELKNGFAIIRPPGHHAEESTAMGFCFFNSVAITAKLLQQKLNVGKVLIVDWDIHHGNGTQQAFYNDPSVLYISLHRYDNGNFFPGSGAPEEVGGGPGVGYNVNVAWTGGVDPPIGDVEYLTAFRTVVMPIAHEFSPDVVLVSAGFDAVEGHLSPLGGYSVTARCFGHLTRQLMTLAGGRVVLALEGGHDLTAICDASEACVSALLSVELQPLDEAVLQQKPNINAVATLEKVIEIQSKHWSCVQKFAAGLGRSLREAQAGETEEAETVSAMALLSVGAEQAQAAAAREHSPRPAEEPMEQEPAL
Sequence of Histone deacetylase 2 (Q92769 whole entry): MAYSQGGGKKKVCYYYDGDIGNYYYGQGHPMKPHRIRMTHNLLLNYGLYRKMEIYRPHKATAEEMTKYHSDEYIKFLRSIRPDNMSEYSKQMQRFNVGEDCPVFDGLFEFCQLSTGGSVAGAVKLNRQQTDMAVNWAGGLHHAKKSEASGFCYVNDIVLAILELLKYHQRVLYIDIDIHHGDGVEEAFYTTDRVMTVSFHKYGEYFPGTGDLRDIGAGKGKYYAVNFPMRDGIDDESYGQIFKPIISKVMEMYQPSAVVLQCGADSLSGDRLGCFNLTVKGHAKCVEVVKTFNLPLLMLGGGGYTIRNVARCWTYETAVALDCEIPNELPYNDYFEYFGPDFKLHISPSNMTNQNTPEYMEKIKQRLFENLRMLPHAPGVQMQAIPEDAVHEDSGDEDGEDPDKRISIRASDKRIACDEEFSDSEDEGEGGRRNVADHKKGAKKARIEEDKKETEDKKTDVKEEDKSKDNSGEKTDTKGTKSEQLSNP
Sequence of Histone deacetylase 3 (O15379 whole entry): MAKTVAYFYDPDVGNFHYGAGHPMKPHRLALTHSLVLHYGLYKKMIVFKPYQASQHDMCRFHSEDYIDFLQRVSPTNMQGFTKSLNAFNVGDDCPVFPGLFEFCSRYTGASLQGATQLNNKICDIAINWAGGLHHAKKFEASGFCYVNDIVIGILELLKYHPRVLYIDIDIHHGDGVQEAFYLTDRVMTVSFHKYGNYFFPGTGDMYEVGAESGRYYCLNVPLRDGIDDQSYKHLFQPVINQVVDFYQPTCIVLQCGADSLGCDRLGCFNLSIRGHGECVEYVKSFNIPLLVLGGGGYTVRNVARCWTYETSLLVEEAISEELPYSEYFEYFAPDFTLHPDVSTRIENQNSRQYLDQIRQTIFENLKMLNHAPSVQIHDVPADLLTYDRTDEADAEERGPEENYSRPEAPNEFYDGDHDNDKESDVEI

Which IC50 [1] does the source give for `O=C(NO)c1ccc(CN(CCO)C(=O)Cc2ccccc2)cc1` here?
The IC50 was 800 nM.

And the IC50 [2]?
The IC50 was 2200 nM.

What about the IC50 [3] of the same compound?
Its IC50 is 2100 nM.

What about the IC50 [4] of the same compound?
The IC50 was 2200 nM.

And the IC50 [5]?
The IC50 was 9500 nM.

And the IC50 [6]?
The IC50 was 400 nM.

And the IC50 [7]?
The IC50 was 5300 nM.

What about the IC50 [8] of the same compound?
The IC50 was 700 nM.

What about the IC50 [9] of the same compound?
The IC50 was 3700 nM.

What about the Ratio IC50 [10] of the same compound?
The Ratio IC50 was 15 to 400.

And the Ratio IC50 [11]?
Its Ratio IC50 is 15 to 400.

What about the Ratio IC50 [12] of the same compound?
The Ratio IC50 was 15 to 400.

What about the Ratio IC50 [13] of the same compound?
The Ratio IC50 was 15 to 400.

What about the Ratio IC50 [14] of the same compound?
The Ratio IC50 was 15 to 400.

And the Ratio IC50 [15]?
Its Ratio IC50 is 15 to 400.

What about the Ratio IC50 [16] of the same compound?
The Ratio IC50 was 15 to 400.

And the Ratio IC50 [17]?
The Ratio IC50 was 15 to 400.

What about the Ratio IC50 [18] of the same compound?
The Ratio IC50 was 15 to 400.

And the Ratio IC50 [19]?
Its Ratio IC50 is 15 to 400.
